# Reference: PubChem BioAssay (NCI)
#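 Step 1: Grow cells in 96-well plates. Step 2: Expose to compound for 48 hours at 5 concentrations. Step 3: Interpolate endpoints linearly; if unreached, use highest concentration. GI50: concentration for 50% inhibition of growth. TGI is the concentration that stops growth completely.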
# Experiments:
# Assay in all cases: NCI-60 cell line screen, 48 h
# 786-0 renal = tested on: 786-0 renal
# A498 renal = tested on: A498 renal
# A549 NSCLC = tested on: A549 NSCLC
# ACHN renal = tested on: ACHN renal
# BT-549 breast = tested on: BT-549 breast
# CAKI-1 renal = tested on: CAKI-1 renal
# CCRF-CEM leukemia = tested on: CCRF-CEM leukemia
# COLO 205 colon = tested on: COLO 205 colon
# DU-145 prostate = tested on: DU-145 prostate
# EKVX NSCLC = tested on: EKVX NSCLC
# HCC-2998 colon = tested on: HCC-2998 colon
# HCT-116 colon = tested on: HCT-116 colon
# HCT-15 colon = tested on: HCT-15 colon
# HL-60(TB) leukemia = tested on: HL-60(TB) leukemia
# HOP-62 NSCLC = tested on: HOP-62 NSCLC
# HOP-92 NSCLC = tested on: HOP-92 NSCLC
# HS 578T breast = tested on: HS 578T breast
# HT29 colon = tested on: HT29 colon
# IGROV1 ovarian = tested on: IGROV1 ovarian
# K-562 leukemia = tested on: K-562 leukemia
# KM12 colon = tested on: KM12 colon
# LOX IMVI melanoma = tested on: LOX IMVI melanoma
# M14 melanoma = tested on: M14 melanoma
# MALME-3M melanoma = tested on: MALME-3M melanoma
# MCF7 breast = tested on: MCF7 breast
# MDA-MB-231 breast = tested on: MDA-MB-231 breast
# MDA-MB-435 = tested on: MDA-MB-435
# MOLT-4 leukemia = tested on: MOLT-4 leukemia
# NCI-H226 lung = tested on: NCI-H226 lung
# NCI-H23 lung = tested on: NCI-H23 lung
# NCI-H460 lung = tested on: NCI-H460 lung
# NCI-H522 lung = tested on: NCI-H522 lung
# NCI/ADR-RES ovarian = tested on: NCI/ADR-RES ovarian
# OVCAR-3 ovarian = tested on: OVCAR-3 ovarian
# OVCAR-4 ovarian = tested on: OVCAR-4 ovarian
# OVCAR-5 ovarian = tested on: OVCAR-5 ovarian
# OVCAR-8 ovarian = tested on: OVCAR-8 ovarian
# PC-3 prostate = tested on: PC-3 prostate
# RPMI-8226 leukemia = tested on: RPMI-8226 leukemia
# RXF 393 renal = tested on: RXF 393 renal
# SF-268 CNS = tested on: SF-268 CNS
# SF-295 CNS = tested on: SF-295 CNS
# SF-539 CNS = tested on: SF-539 CNS
# SK-MEL-2 melanoma = tested on: SK-MEL-2 melanoma
# SK-MEL-28 melanoma = tested on: SK-MEL-28 melanoma
# SK-MEL-5 melanoma = tested on: SK-MEL-5 melanoma
# SK-OV-3 ovarian = tested on: SK-OV-3 ovarian
# SN12C renal = tested on: SN12C renal
# SNB-19 CNS = tested on: SNB-19 CNS
# SNB-75 CNS = tested on: SNB-75 CNS
# SR leukemia = tested on: SR leukemia
# SW-620 colon = tested on: SW-620 colon
# T-47D breast = tested on: T-47D breast
# TK-10 renal = tested on: TK-10 renal
# U251 CNS = tested on: U251 CNS
# UACC-257 melanoma = tested on: UACC-257 melanoma
# UACC-62 melanoma = tested on: UACC-62 melanoma
# UO-31 renal = tested on: UO-31 renal
smiles,measurement,setting,value
COc1cc(C(=O)/C=C/c2c(C)n([O-])c3ccc(C(F)(F)F)cc3[n+]2=O)cc(OC)c1OC,GI50,786-0 renal,1.96 µM
same,TGI,786-0 renal,4.31 µM
same,GI50,A498 renal,14.5 µM
same,TGI,A498 renal,51.7 µM
same,GI50,A549 NSCLC,19.8 µM
same,TGI,A549 NSCLC,> 93.3 µM
same,GI50,ACHN renal,1.49 µM
same,TGI,ACHN renal,3.82 µM
same,GI50,BT-549 breast,8.34 µM
same,TGI,BT-549 breast,25.6 µM
same,GI50,CAKI-1 renal,3.32 µM
same,TGI,CAKI-1 renal,> 38.1 µM
same,GI50,CCRF-CEM leukemia,0.564 µM
same,TGI,CCRF-CEM leukemia,> 100 µM
same,GI50,COLO 205 colon,1.43 µM
same,TGI,COLO 205 colon,2.88 µM
same,GI50,DU-145 prostate,4.11 µM
same,TGI,DU-145 prostate,14.3 µM
same,GI50,EKVX NSCLC,21.4 µM
same,TGI,EKVX NSCLC,> 100 µM
same,GI50,HCC-2998 colon,15.5 µM
same,TGI,HCC-2998 colon,35.7 µM
same,GI50,HCT-116 colon,0.83 µM
same,TGI,HCT-116 colon,2.51 µM
same,GI50,HCT-15 colon,3.55 µM
same,TGI,HCT-15 colon,24.2 µM
same,GI50,HL-60(TB) leukemia,2.92 µM
same,TGI,HL-60(TB) leukemia,7.89 µM
same,GI50,HOP-62 NSCLC,25.2 µM
same,TGI,HOP-62 NSCLC,> 100 µM
same,GI50,HOP-92 NSCLC,3.04 µM
same,TGI,HOP-92 NSCLC,21.3 µM
same,GI50,HS 578T breast,7.55 µM
same,TGI,HS 578T breast,> 77.8 µM
same,GI50,HT29 colon,1.69 µM
same,TGI,HT29 colon,3.99 µM
same,GI50,IGROV1 ovarian,7.54 µM
same,TGI,IGROV1 ovarian,48.4 µM
same,GI50,K-562 leukemia,1.65 µM
same,TGI,K-562 leukemia,5.85 µM
same,GI50,KM12 colon,13.5 µM
same,TGI,KM12 colon,34.3 µM
same,GI50,LOX IMVI melanoma,0.77 µM
same,TGI,LOX IMVI melanoma,2.66 µM
same,GI50,M14 melanoma,2.42 µM
same,TGI,M14 melanoma,8.46 µM
same,GI50,MALME-3M melanoma,1.74 µM
same,TGI,MALME-3M melanoma,4.19 µM
same,GI50,MCF7 breast,4.26 µM
same,TGI,MCF7 breast,17.3 µM
same,GI50,MDA-MB-231 breast,8.54 µM
same,TGI,MDA-MB-231 breast,> 79.3 µM
same,GI50,MDA-MB-435,3.15 µM
same,TGI,MDA-MB-435,15.8 µM
same,GI50,MOLT-4 leukemia,1.75 µM
same,TGI,MOLT-4 leukemia,5.11 µM
same,GI50,NCI-H226 lung,15.1 µM
same,TGI,NCI-H226 lung,> 57.7 µM
same,GI50,NCI-H23 lung,3.8 µM
same,TGI,NCI-H23 lung,15.1 µM
same,GI50,NCI-H460 lung,10.7 µM
same,TGI,NCI-H460 lung,29.1 µM
same,GI50,NCI-H522 lung,0.232 µM
same,TGI,NCI-H522 lung,0.784 µM
same,GI50,NCI/ADR-RES ovarian,3.54 µM
same,TGI,NCI/ADR-RES ovarian,97.7 µM
same,GI50,OVCAR-3 ovarian,1.37 µM
same,TGI,OVCAR-3 ovarian,3.07 µM
same,GI50,OVCAR-4 ovarian,7.1 µM
same,TGI,OVCAR-4 ovarian,> 100 µM
same,GI50,OVCAR-5 ovarian,15.2 µM
same,TGI,OVCAR-5 ovarian,> 83.4 µM
same,GI50,OVCAR-8 ovarian,2.99 µM
same,TGI,OVCAR-8 ovarian,> 31.1 µM
same,GI50,PC-3 prostate,6.41 µM
same,TGI,PC-3 prostate,> 100 µM
same,GI50,RPMI-8226 leukemia,5.23 µM
same,TGI,RPMI-8226 leukemia,48.9 µM
same,GI50,RXF 393 renal,1.44 µM
same,TGI,RXF 393 renal,2.86 µM
same,GI50,SF-268 CNS,12.8 µM
same,TGI,SF-268 CNS,37.4 µM
same,GI50,SF-295 CNS,26.2 µM
same,TGI,SF-295 CNS,> 90.7 µM
same,GI50,SF-539 CNS,3.7 µM
same,TGI,SF-539 CNS,15 µM
same,GI50,SK-MEL-2 melanoma,4 µM
same,TGI,SK-MEL-2 melanoma,13.5 µM
same,GI50,SK-MEL-28 melanoma,7.62 µM
same,TGI,SK-MEL-28 melanoma,23.6 µM
same,GI50,SK-MEL-5 melanoma,17.6 µM
same,TGI,SK-MEL-5 melanoma,> 57.3 µM
same,GI50,SK-OV-3 ovarian,27.1 µM
same,TGI,SK-OV-3 ovarian,> 100 µM
same,GI50,SN12C renal,6.89 µM
same,TGI,SN12C renal,> 100 µM
same,GI50,SNB-19 CNS,36.1 µM
same,TGI,SNB-19 CNS,> 100 µM
same,GI50,SNB-75 CNS,10.9 µM
same,TGI,SNB-75 CNS,24.6 µM
same,GI50,SR leukemia,2.67 µM
same,TGI,SR leukemia,> 100 µM
same,GI50,SW-620 colon,0.68 µM
same,TGI,SW-620 colon,2.04 µM
same,GI50,T-47D breast,2.15 µM
same,TGI,T-47D breast,7.83 µM
same,GI50,TK-10 renal,1.41 µM
same,TGI,TK-10 renal,2.82 µM
same,GI50,U251 CNS,8.83 µM
same,TGI,U251 CNS,24.1 µM
same,GI50,UACC-257 melanoma,1.78 µM
same,TGI,UACC-257 melanoma,3.94 µM
same,GI50,UACC-62 melanoma,3.62 µM
same,TGI,UACC-62 melanoma,13.8 µM
same,GI50,UO-31 renal,1.45 µM
same,TGI,UO-31 renal,3.51 µM
